{"source": "patent US4229435A", "about": "“Preparation of blood fraction” (priority 1978, dated 1980)", "format_in_all_cases": "biochemical", "details_in_all_cases": "no reducing agent", "key": {"[1]": {"target": "T1, F II (Homo sapiens, UniProt P00734)", "T1 construct": "from tissue; host or cells: human citrated blood plasma", "assay": "Coagulation factor II activity in plasma after reducing agent + iodoacetic acid", "experimental": "(§1) Human blood with anti-coagulating agent (9 parts blood+1 part 3.8% trisodium citrate) is centrifuged and the following tests with plasma were carried out:\n(§2) The plasma is divided into 8 ml portions, which are preheated at 37° C. for 5 min. DTT is added in different concentrations, see table 1 below, and is incubated for 5 min. at 37° C. Then iodoacetic acid, 3 mol per mol DTT, is added, and incubation takes place for 15 min. at 37° C. The plasma samples are distributed in portions of about 0.2 ml and are immediately frozen at -70° C. Testing of different coagulation factors is made in known manner.\n(§3) The plasma is divided into 8 ml portions, which are preheated at 37° C. for 5 min. DTE is added in different concentrations (see table 2), and is incubated for 5 minutes at 37° C. Then, iodoacetic acid (3 mol per mol DTE) is added and incubation is carried out for 15 minutes at 37° C. The plasma samples are distributed in portions of about 0.2 ml and are immediately frozen at -70° C. Testing of different coagulation factors is made in a manner known per se.\nas §3, with “minutes. Lipoic acid” for “min. DTE”, “3),” for “2),”, “lipoic acid)” for “DTE)”\nas §3, with “minutes. Mercaptoethanol” for “min. DTE”, “4),” for “2),”, “mercaptoethanol)” for “DTE)”\nas §3, with “minutes. Potassium borohydride” for “min. DTE”, “5,” for “2),”, “potassium borohydride)” for “DTE)”"}, "[2]": {"target": "T2, F V (Homo sapiens, UniProt P12259)", "T2 construct": "from tissue; host or cells: human citrated blood plasma", "T2 sequence (P12259 29-2224)": "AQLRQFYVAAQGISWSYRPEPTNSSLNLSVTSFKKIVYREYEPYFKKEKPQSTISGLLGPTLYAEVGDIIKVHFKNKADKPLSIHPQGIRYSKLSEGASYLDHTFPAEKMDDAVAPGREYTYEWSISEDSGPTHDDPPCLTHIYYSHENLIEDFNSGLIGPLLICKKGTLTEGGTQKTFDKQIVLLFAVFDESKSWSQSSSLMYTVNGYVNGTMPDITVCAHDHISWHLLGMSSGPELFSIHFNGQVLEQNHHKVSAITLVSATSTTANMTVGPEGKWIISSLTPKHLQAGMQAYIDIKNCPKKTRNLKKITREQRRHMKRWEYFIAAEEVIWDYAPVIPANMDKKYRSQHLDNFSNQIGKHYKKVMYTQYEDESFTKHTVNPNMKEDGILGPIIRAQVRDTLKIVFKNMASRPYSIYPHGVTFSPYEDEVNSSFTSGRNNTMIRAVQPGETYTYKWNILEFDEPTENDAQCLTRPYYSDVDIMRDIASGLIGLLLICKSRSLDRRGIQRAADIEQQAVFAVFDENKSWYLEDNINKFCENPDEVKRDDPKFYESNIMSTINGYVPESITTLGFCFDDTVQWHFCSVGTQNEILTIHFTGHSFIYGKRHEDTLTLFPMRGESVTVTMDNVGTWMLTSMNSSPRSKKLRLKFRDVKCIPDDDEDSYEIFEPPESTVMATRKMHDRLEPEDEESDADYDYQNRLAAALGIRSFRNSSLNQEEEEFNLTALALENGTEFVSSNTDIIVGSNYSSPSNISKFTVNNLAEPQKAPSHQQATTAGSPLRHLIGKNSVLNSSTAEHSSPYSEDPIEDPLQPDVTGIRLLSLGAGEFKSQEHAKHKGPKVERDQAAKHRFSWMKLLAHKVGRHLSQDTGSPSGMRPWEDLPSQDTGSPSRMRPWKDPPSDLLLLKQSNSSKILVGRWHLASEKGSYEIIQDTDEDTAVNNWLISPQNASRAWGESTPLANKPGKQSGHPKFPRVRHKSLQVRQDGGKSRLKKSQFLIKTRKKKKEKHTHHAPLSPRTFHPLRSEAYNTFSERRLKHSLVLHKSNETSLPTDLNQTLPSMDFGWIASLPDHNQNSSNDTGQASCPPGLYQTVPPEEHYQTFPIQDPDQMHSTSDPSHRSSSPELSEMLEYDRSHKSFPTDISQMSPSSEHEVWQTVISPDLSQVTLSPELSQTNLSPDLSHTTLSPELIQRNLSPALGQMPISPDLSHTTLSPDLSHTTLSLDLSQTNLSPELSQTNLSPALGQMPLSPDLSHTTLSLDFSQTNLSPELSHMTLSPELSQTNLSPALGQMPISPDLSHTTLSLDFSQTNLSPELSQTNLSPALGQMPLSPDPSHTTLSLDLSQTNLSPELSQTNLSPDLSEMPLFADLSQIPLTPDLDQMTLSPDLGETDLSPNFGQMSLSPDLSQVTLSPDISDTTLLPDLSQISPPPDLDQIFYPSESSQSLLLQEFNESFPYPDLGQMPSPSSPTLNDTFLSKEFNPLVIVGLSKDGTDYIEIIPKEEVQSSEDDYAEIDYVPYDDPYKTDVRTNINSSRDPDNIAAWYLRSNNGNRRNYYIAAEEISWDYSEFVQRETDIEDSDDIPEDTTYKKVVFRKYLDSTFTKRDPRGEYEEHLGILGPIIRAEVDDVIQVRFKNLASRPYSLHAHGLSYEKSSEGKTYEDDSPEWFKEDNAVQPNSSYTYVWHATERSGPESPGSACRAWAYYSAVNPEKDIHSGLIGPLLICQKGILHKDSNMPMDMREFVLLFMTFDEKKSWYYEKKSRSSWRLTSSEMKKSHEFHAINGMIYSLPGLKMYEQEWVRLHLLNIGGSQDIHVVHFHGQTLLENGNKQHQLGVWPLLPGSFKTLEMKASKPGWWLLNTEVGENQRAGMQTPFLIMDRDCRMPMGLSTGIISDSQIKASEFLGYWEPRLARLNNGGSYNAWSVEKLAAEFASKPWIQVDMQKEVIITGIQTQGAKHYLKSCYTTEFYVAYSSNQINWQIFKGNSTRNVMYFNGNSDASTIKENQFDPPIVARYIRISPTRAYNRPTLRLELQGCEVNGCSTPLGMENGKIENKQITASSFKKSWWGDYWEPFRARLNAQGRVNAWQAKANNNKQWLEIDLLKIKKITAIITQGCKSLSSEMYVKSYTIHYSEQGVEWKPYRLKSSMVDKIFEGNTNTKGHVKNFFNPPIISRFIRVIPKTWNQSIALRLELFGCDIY", "assay": "Coagulation factor V activity in plasma after reducing agent + iodoacetic acid", "experimental": "as §1, §2, §3\nas §3, with “minutes. Lipoic acid” for “min. DTE”, “3),” for “2),”, “lipoic acid)” for “DTE)”\nas §3, with “minutes. Mercaptoethanol” for “min. DTE”, “4),” for “2),”, “mercaptoethanol)” for “DTE)”\nas §3, with “minutes. Potassium borohydride” for “min. DTE”, “5,” for “2),”, “potassium borohydride)” for “DTE)”"}, "[3]": {"target": "T3, F X (Homo sapiens, UniProt P00742)", "T3 construct": "from tissue; host or cells: human citrated blood plasma", "T3 sequence (P00742 235-488 limits assumed)": "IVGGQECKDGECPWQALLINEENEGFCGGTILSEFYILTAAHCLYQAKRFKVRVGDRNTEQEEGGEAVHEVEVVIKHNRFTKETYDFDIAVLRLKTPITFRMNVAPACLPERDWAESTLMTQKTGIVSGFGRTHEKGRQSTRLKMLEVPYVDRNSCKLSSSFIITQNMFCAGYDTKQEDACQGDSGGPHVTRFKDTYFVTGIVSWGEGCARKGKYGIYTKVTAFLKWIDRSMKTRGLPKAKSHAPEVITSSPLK", "T3 sequence (P00742 41-179 limits assumed)": "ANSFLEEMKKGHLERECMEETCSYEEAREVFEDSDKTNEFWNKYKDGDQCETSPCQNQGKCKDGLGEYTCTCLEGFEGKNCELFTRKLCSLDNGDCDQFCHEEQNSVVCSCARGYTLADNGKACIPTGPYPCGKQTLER", "assay": "Coagulation factor X activity in plasma after reducing agent + iodoacetic acid", "experimental": "as §1, §2, §3\nas §3, with “minutes. Lipoic acid” for “min. DTE”, “3),” for “2),”, “lipoic acid)” for “DTE)”\nas §3, with “minutes. Mercaptoethanol” for “min. DTE”, “4),” for “2),”, “mercaptoethanol)” for “DTE)”\nas §3, with “minutes. Potassium borohydride” for “min. DTE”, “5,” for “2),”, “potassium borohydride)” for “DTE)”"}, "[4]": {"details": "Table 1 B: control plasma + iodoacetic acid, same amount as in F"}, "[5]": {"details": "Table 2 B: control plasma + iodoacetic acid, same amount as in E"}, "[6]": {"details": "Table 3 B: control plasma + iodoacetic acid, same amount as in E"}, "[7]": {"details": "Table 4 B: control plasma + iodoacetic acid, same amount as in D"}, "[8]": {"details": "Table 5 B: control plasma + iodoacetic acid, same amount as in D"}}}
{"smiles": "O=C(O)CI", "note": "[iodoacetic acid]", "values": [{"measurement": "Coagulation factor F II", "setting": "[1]; [4]", "value": "99 % of control"}, {"measurement": "Coagulation factor F II", "setting": "[1]; [5]", "value": "100 % of control"}, {"measurement": "Coagulation factor F II", "setting": "[1]; [6]", "value": "100 % of control"}, {"measurement": "Coagulation factor F II", "setting": "[1]; [7]", "value": "88 % of control"}, {"measurement": "Coagulation factor F II", "setting": "[1]; [8]", "value": "88 % of control"}, {"measurement": "Coagulation factor F V", "setting": "[2]; [4]", "value": "95 % of control"}, {"measurement": "Coagulation factor F V", "setting": "[2]; [5]", "value": "105 % of control"}, {"measurement": "Coagulation factor F V", "setting": "[2]; [6]", "value": "105 % of control"}, {"measurement": "Coagulation factor F V", "setting": "[2]; [7]", "value": "67 % of control"}, {"measurement": "Coagulation factor F V", "setting": "[2]; [8]", "value": "67 % of control"}, {"measurement": "Coagulation factor F X", "setting": "[3]; [4]", "value": "96 % of control"}, {"measurement": "Coagulation factor F X", "setting": "[3]; [5]", "value": "87 % of control"}, {"measurement": "Coagulation factor F X", "setting": "[3]; [6]", "value": "87 % of control"}, {"measurement": "Coagulation factor F X", "setting": "[3]; [7]", "value": "86 % of control"}, {"measurement": "Coagulation factor F X", "setting": "[3]; [8]", "value": "86 % of control"}]}
